Assay [1] relates to saphenous artery rings. In words: Vasorelaxant effect in vitro (phenylephrine-contracted artery rings). Type of assay: cell-based, Rabbits. The note with it: rabbit saphenous artery rings, contraction induced by phenylephrine. The method, then: B-1. Vasorelaxant Effect In Vitro:
Rabbits are anaesthetized and sacrificed by intravenous injection of thiopental sodium (about 50 mg/kg) and exsanguinated. The saphenous artery is removed and divided into rings 3 mm wide. The rings are mounted singly on in each case a pair of triangular hooks open at the end and made of 0.3 mm-thick special wire (Remanium®). Each ring is placed under an initial tension in 5 ml organ baths with Krebs-Henseleit solution which is at 37° C., is gassed with 95% O2/5% CO2 and has the following composition: NaCl 119 mM; KCl 4.8 mM; CaCl2×2H2O 1 mM; MgSO4×7H2O 1.4 mM; KH2PO4 1.2 mM; NaHCO3 25 mM; glucose 10 mM; bovine serum albumin 0.001%. The force of contraction is detected with Statham UC2 cells, amplified and digitized via A/D converters (DAS-1802 HC, Keithley Instruments, Munich) and recorded in parallel on chart recorders. Contractions are induced by addition of phenylephrine.
After several (generally 4) control cycles, the substance to be investigated is added in each further run in increasing dosage, and the height of the contraction achieved under the influence of the test substance is compared with the height of the contraction reached in the last preceding run. The concentration necessary to reduce the contraction reached in the preceding control by 50% is calculated from this (IC50). The standard application volume is 5 μl. The proportion of DMSO in the bath solution corresponds to 0.1%.

The subject of assay [2] is conscious SH rats. In words: Radiotelemetric measurement of blood pressure and heart rate on conscious SH rats. Type of assay: in vivo, spontaneously hypertensive rats (SH rats). The note with it: oral administration of 0.3 mg/kg. From the text: B-3. Radiotelemetric Measurement of Blood Pressure and Heart Rate on Conscious SH Rats
A commercially available telemetry system from Data Sciences International DSI, USA, is employed for the measurements on conscious SH rats described below.
The system consists of 3 main components: (1) implantable transmitter, (2) receiver which is linked via a multiplexer to a (3) data acquisition computer. The telemetry system makes it possible to record continuously the blood pressure and heart rate on conscious animals in their usual habitat.
The investigations are carried out on adult female spontaneously hypertensive rats (SH rats) with a body weight of >200 g. After transmitter implantation, the experimental animals are housed singly in type 3 Makrolon cages. They have free access to standard feed and water. […]
The telemetry measuring unit is configured for 24 animals. Each experiment is recorded under an experiment number.
Each of the instrumented rats living in the system is assigned a separate receiving antenna (1010 Receiver, DSI). […] The emitted signals can be detected online by a data acquisition system (Dataquest™ A.R.T. for Windows, DSI) and be appropriately processed. […]
In the standard procedure, the following are measured for 10-second periods in each case: (1) systolic blood pressure (SBP), (2) diastolic blood pressure (DBP), (3) mean arterial pressure (MAP) and (4) heart rate (HR). […]

The target in assay [3] is T1, Haem-containing sGC (recombinant soluble guanylate cyclase) (Rattus norvegicus, UniProt P20595).
T1 construct: made in house; host or cells: Sf9 insect cells (baculovirus)
T1 sequence (P20595 1-619): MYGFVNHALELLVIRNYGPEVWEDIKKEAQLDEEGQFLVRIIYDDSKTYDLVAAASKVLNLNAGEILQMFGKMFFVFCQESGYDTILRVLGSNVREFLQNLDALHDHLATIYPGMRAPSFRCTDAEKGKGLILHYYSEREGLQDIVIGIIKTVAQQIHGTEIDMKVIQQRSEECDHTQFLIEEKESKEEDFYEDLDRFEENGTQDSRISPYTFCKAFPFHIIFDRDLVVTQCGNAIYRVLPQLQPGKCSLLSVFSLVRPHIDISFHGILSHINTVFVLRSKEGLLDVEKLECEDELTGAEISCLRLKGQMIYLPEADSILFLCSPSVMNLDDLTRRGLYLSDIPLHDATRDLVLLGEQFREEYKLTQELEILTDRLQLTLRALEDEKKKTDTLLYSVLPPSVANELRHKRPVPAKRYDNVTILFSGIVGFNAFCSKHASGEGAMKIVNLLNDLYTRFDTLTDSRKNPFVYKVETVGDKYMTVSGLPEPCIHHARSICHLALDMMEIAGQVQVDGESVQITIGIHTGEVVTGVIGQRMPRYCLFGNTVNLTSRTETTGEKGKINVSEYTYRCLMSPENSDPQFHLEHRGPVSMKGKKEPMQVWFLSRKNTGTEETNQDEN
T1 sequence (P19686 1-690 partner): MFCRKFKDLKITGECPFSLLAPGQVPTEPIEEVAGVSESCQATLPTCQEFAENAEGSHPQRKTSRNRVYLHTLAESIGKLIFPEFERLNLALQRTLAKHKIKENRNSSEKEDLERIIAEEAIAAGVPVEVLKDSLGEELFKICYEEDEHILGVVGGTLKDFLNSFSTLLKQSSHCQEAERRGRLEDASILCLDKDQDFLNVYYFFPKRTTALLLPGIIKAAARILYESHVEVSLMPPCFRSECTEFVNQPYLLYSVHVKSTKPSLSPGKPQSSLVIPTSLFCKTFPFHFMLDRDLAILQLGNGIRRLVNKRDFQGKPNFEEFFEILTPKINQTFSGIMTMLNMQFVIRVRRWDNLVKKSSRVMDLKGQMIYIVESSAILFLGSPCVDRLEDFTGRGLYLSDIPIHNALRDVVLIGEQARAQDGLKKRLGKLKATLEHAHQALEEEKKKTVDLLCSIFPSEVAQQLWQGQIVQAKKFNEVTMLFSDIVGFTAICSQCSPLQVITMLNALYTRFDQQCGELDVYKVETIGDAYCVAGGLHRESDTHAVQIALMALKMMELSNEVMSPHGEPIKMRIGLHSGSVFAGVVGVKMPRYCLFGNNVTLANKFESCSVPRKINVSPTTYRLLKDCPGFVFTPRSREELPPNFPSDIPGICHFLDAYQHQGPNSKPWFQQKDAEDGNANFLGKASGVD
The assay can be described thus: Stimulation of recombinant soluble guanylate cyclase (sGC) in vitro, haem-containing enzyme. Format: biochemical. The text has this:
(§1) B-2. Stimulation of Recombinant Soluble Guanylate Cyclase (sGC) In Vitro:
Hoenicka, E. M. Becker, H. Apeler, T. Sirichoke, H. Schroeder, R. Gerzer and J.-P. Stasch, “Purified soluble guanylyl cyclase expressed in a baculovirus/Sf9 system: Stimulation by YC-1, nitric oxide, and carbon oxide”, J. Mol. Med. 77 (1999), 14-23. The haem-free guanylate cyclase is obtained by adding Tween 20 to the sample buffer (0.5% in the final concentration).
(§2) The activation of sGC by a test substance is reported as n-fold stimulation of the basal activity.

Assay [4] deals with T2, Haem-free sGC (recombinant soluble guanylate cyclase) (Rattus norvegicus, UniProt P20595).
T2 construct: made in house; host or cells: Sf9 insect cells (baculovirus)
T2 sequence (P20595 1-619): T1 sequence (P20595 1-619)
T2 sequence (P19686 1-690 partner): T1 sequence (P19686 1-690 partner)
In words: Stimulation of recombinant soluble guanylate cyclase (sGC) in vitro, haem-free enzyme. Format: biochemical. Here is the method:
as §1
Investigations on the stimulation of recombinant soluble guanylate cyclase (sGC) by the compounds according to the invention with and without sodium nitroprusside, and with and without the haem-dependent sGC inhibitor 1H-1,2,4-oxadiazole-(4,3a)-quinoxalin-1-one (ODQ) are carried out by the method described in detail in the following reference: M. Hoenicka, E. M. Becker, H. Apeler, T. Sirichoke, H. Schroeder, R. Gerzer and J.-P. Stasch, “Purified soluble guanylyl cyclase expressed in a baculovirus/Sf9 system: Stimulation by YC-1, nitric oxide, and […]”, J. Mol. Med. 77 (1999), 14-23. The haem-free guanylate cyclase is obtained by adding Tween 20 to the sample buffer (0.5% in the final concentration).
as §2

As to `CCCCCCOc1ccccc1/C=C/C(CCc1ccc(C(=O)O)cc1)Cc1ccc(C(=O)O)cc1` (racemic) [Example 20, 4-{(4E)-3-(4-Carboxybenzyl)-5-[2-(hexyloxy)phenyl]pent-4-en-1-yl}benzoic Acid], in assay [1] (Oryctolagus cuniculus), half-maximal inhibition (IC50) required 0.7 nM. In assay [2], the “Period of blood pressure reduction” value came out at 11 h and the “Reduction in blood pressure” value is on record as “marked reduction in blood pressure”.

In assay [1], `O=C(O)c1ccc(CCC(/C=C/c2ccccc2OCCCCCc2ccccc2)Cc2ccc(C(=O)O)cc2)cc1` (racemic) [Example 5, 4-((4E)-3-(4-Carboxybenzyl)-5-{2-[(5-phenylpentyl)oxy]phenyl}pent-4-en-1-yl)benzoic Acid] showed an IC50 of 4.9 nM. For the same compound, the “Stimulation (n-fold) Haem-containing sGC Basal” value is 3.5 n-fold in assay [3] (0.001 μM Example 5); 17.2 n-fold in assay [3] (0.01 μM Example 5); 35.1 n-fold in assay [3] (0.1 μM Example 5); 44.2 n-fold in assay [3] (1 μM Example 5); 59.5 n-fold in assay [3] (10 μM Example 5). The “Stimulation (n-fold) Haem-containing sGC +0.1 μM DEA/NO” value was found to be 88.3 n-fold in assay [3] (0.001 μM Example 5 +0.1 μM DEA/NO); 102.9 n-fold in assay [3] (0.01 μM Example 5 +0.1 μM DEA/NO); 123.1 n-fold in assay [3] (0.1 μM Example 5 +0.1 μM DEA/NO); 124.1 n-fold in assay [3] (1 μM Example 5 +0.1 μM DEA/NO); 152.0 n-fold in assay [3] (10 μM Example 5 +0.1 μM DEA/NO). Further, the “Stimulation (n-fold) Haem-containing sGC +10 μM ODQ” value in assay [3] (0.001 μM Example 5 +10 μM ODQ) was 40.3 n-fold; in assay [3] (0.01 μM Example 5 +10 μM ODQ), 83.0 n-fold; in assay [3] (0.1 μM Example 5 +10 μM ODQ) it was 149.5 n-fold; in assay [3] (1 μM Example 5 +10 μM ODQ), 162.1 n-fold; in assay [3] (10 μM Example 5 +10 μM ODQ) it was 171.2 n-fold. In assay [3] (combination with DEA/NO), the “Synergy of combination with NO donor DEA/NO on sGC stimulation” value is reported as “no synergistic effect”. Also, the “Stimulation (n-fold) Haem-free sGC Basal” value in assay [4] (0.001 μM Example 5) amounted to 19.2 n-fold; in assay [4] (0.01 μM Example 5), 105.8 n-fold; in assay [4] (0.1 μM Example 5), 185.3 n-fold; in assay [4] (1 μM Example 5), 201.2 n-fold; in assay [4] (10 μM Example 5), 203.1 n-fold. Also, the “Stimulation (n-fold) Haem-free sGC +10 μM ODQ” value in assay [4] (0.001 μM Example 5 +10 μM ODQ) is 18.4 n-fold; in assay [4] (0.01 μM Example 5 +10 μM ODQ), 100.5 n-fold; in assay [4] (0.1 μM Example 5 +10 μM ODQ), 170.4 n-fold; in assay [4] (1 μM Example 5 +10 μM ODQ), 189.2 n-fold; in assay [4] (10 μM Example 5 +10 μM ODQ), 180.7 n-fold.

As a reminder, the IC50 is the point on the concentration scale where inhibition reaches its midpoint.
